Data as given in patent US6906098B2, “Mixed steroidal 1,2,4,5-tetraoxane compounds and methods of making and using thereof” (priority 2002, dated 2005).
In brackets after ≈: the same amount, converted by molar mass. Read-outs that look alike come from different tables or passages of the source.

Columns and labels:
[1] = tested on: VERO cells; experiment: cells; conditions: Chlorocebus sabaeus, Table 5
[2] = tested on: Mycobacterium tuberculosis H37Rv (ATCC 27294); experiment: Primary screen, Microplate Alamar Blue Assay (MABA), percent inhibition; assay type: cell-based; conditions: Table 5, Alamar assay, primary screening at 6.25 μg/ml; for inhibition at 6.25 µg/mL: Mycobacterium tuberculosis, read-out: % Inhib
Procedure, shortened: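 Single-concentration screen at 6.25 μg/ml (or molar equivalent of the heaviest congener in a series) against H37Rv grown in BACTEC 12B medium. Growth read by Microplate Alamar Blue Assay, reported as percent inhibition.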

[3] = tested on: M. tuberculosis H37Rv; experiment: Minimum inhibitory concentration (MIC) in the MABA; assay type: cell-based, Mycobacterium tuberculosis; conditions: Table 5, Alamar assay, M. tuberculosis H37Rv
Procedure, shortened: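 Run under the NIAID TAACF screening program against M. tuberculosis by fluorescence read-out. MIC taken as the lowest concentration giving 90% reduction in fluorescence relative to controls.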

[4] = tested on: Plasmodium falciparum chloroquine-susceptible strain D6; experiment: In vitro antimalarial drug susceptibility assay (radiolabeled hypoxanthine incorporation), strain D6; assay type: cell-based; conditions: for Strain D6 IC50: growth inhibition, chloroquine-susceptible strain D6, 66 h incubation; for IC50: Plasmodium falciparum, D6, 66 h, read-out: Strain D6 IC50, growth inhibition, chloroquine-susceptible strain D6, 66 h incubation
[5] = tested on: VERO cells; conditions: ratio of IC50 in VERO cells to MIC (M. tuberculosis H37Rv)
[6] = tested on: D6 and W2 P. falciparum clones; assay type: cell-based, Plasmodium falciparum; conditions: IC50 (W2)/IC50 (D6) ratio
[7] = tested on: Plasmodium falciparum chloroquine-resistant strain W2; experiment: microbe, parasite or virus in culture; assay type: cell-based; conditions: for IC50: Plasmodium falciparum, W2, 66 h, read-out: Strain W2 IC50, growth inhibition, chloroquine-resistant strain W2, 66 h incubation
[8] = tested on: IGROV1 ovarian cancer cell line; experiment: NCI in vitro antiproliferative screen (SRB), IGROV1; assay type: cell-based, human; conditions: IGROV1, after 48 h
Protocol: (§1) In preliminary tests, four compounds (1B14a, 1C44, 1C45, and 1C46) were chosen by NIH-NCI for in vitro screening. See Drug discovery and development program, National Cancer Institute, Bethesda, (NCI), http://dtp.nci.nih.gov. All tetraoxanes were evaluated in the 3-cell line (lung—NCI-H460, breast—MCF7, CNS-SF-268) one dose primary anticancer assay: growth percentage after 48 hours, at 100 μM concentration of tested compound. Two compounds were eliminated at this step (1B14a and 1C46), while the acid 1C44 and primary amide 1C45 were evaluated against the full panel of 60 human tumor cell lines starting with 10^−4 M concentration of investigated compounds.
(§2) The activity of numerous compounds of the present invention against various cancer cell lines was submitted to the Developmental Therapeutics Program (DTP) at the National Cancer Institute (NCI) of the National Institutes of Health (NIH) for screening.
(§3) The DTP Human Tumor Cell Line Screen utilizes 60 different human tumor cell lines, representing leukemia, melanoma and cancers of the lung, colon, brain, ovary, breast, prostate, and kidney according to conventional methods known in the art. See e.g. Alley, M. C., et al. (1988) Cancer Research 48:589-601; Grever, M. R., et al. (1992) Seminars in Oncology 19(6):622-638; and Boyd, M. R., and Paull, K. D. (1995) Drug Development Research 34:91-109, which are herein incorporated by reference.
(§4) Generally, the human tumor cell lines of the cancer screening panel are grown in RPMI 1640 medium containing 5% fetal bovine serum and 2 mM L-glutamine. For a typical screening experiment, cells are inoculated into 96 well microtiter plates in 100 μl at plating densities ranging from 5,000 to 40,000 cells/well depending on the doubling time of individual cell lines. After cell inoculation, the microtiter plates are incubated at 37° C., 5% CO2, 95% air and 100% relative humidity for 24 hours prior to addition of the compounds to be tested.
(§5) After 24 hours, two plates of each cell line are fixed in situ with TCA, to represent a measurement of the cell population for each cell line at the time of drug addition (Tz). Experimental drugs are solubilized in dimethyl sulfoxide at 400-fold the desired final maximum test concentration and stored frozen prior to use. At the time of drug addition, an aliquot of frozen concentrate is thawed and diluted to twice the desired final maximum test concentration with complete medium containing 50 μg/ml gentamicin. Additional four, 10-fold or ½ log serial dilutions are made to provide a total of five drug concentrations plus control. Aliquots of 100 μl of these different drug dilutions are added to the appropriate microtiter wells already containing 100 μl of medium, resulting in the required final drug concentrations.
(§6) Following drug addition, the plates are incubated for an additional 48 hours at 37° C., 5% CO2, 95% air, and 100% relative humidity. For adherent cells, the assay is terminated by the addition of cold TCA. Cells are fixed in situ by the gentle addition of 50 μl of cold 50% (w/v) TCA (final concentration, 10% TCA) and incubated for 60 minutes at 4° C. The supernatant is discarded, and the plates are washed five times with tap water and air dried. Sulforhodamine B (SRB) solution (100 μl) at 0.4% (w/v) in 1% acetic acid is added to each well, and plates are incubated for 10 minutes at room temperature. […]

[9] = tested on: UO-31 renal cancer cell line; experiment: NCI in vitro antiproliferative screen (SRB), UO-31; assay type: cell-based, human; conditions: UO-31, after 48 h
Protocol: as §1, §2, §3, §4, §5, §6

[10] = tested on: SR leukemia cell line; experiment: NCI in vitro antiproliferative screen (SRB), SR; assay type: cell-based, human; conditions: after 48 h
Protocol: as §1, §2, §3, §4, §5, §6

[11] = tested on: TK-10 renal cancer cell line; experiment: NCI in vitro antiproliferative screen (SRB), TK-10; assay type: cell-based, human; conditions: TK-10, after 48 h
Protocol: as §1, §2, §3, §4, §5, §6

[12] = tested on: MALME-3M melanoma cancer cell line; experiment: NCI in vitro antiproliferative screen (SRB), MALME-3M; assay type: cell-based, human; conditions: MALME-3M, after 48 h
Protocol: as §1, §2, §3, §4, §5, §6

[13] = tested on: KM-12 colon cancer cell line; experiment: NCI in vitro antiproliferative screen (SRB), KM-12; assay type: cell-based, human; conditions: KM-12, after 48 h
Protocol: as §1, §2, §3, §4, §5, §6

[14] = Mycobacterium tuberculosis, H37RV, read-out: MIC
[15] = Homo sapiens, read-out: LC50 (the source's name)

SMILES | IC50 [1] [µg/mL] | inhibition at 6.25 µg/mL [2] [%] | SI (selectivity index) [5] | Resistance Index [6] | IC50 [7] [µg/mL] | IC50 [4] [µg/mL] | MIC [3, 14] [µg/mL] | also measured
CCC1CCC2(CC1)OOC1(CC[C@]3(C)C4C[C@H](OC(C)=O)[C@@]5(C)C(CC[C@@H]5C(C)CCC(=O)NC)C4[C@H](OC(C)=O)C[C@@H]3C1)OO2 (single isomer, unassigned) [26/1C36, N-Methyl-7α,12α-Diacetoxy-5β-cholan-24-amide-3-spiro-6′-(1′,2′,4′,5′-tetraoxacyclohexane)-3′-spiro-1″-((4″R or S)-ethyl)cyclohexane] | 1.83 (≈ 2.76 µM) | 99 | 1.17 | 1.08 | 0.00517 (≈ 0.00781 µM) | – | – | MIC [3]: 1.56 µg/mL (≈ 2.36 µM); Strain D6 IC50 [4]: 0.00477 µg/mL
CCNC(=O)CCC(C)[C@H]1CCC2C3C(C[C@H](OC(C)=O)[C@@]21C)[C@@]1(C)CCC2(C[C@H]1C[C@H]3OC(C)=O)OOC1(CCC(CC)CC1)OO2 (single isomer, unassigned) [27/1C37, N-Ethyl-7α,12α-Diacetoxy-5β-cholan-24-amide-3-spiro-6′-(1′,2′,4′,5′-tetraoxacyclohexane)-3′-spiro-1″-((4″R or S)-ethyl)cyclohexane] | 1.91 (≈ 2.83 µM) | 96 | 1.22 | 0.48 | 0.00646 (≈ 0.00956 µM) | 0.0134 (≈ 0.0198 µM) | – | MIC [3]: 1.56 µg/mL (≈ 2.31 µM)
CCCNC(=O)CCC(C)[C@H]1CCC2C3C(C[C@H](OC(C)=O)[C@@]21C)[C@@]1(C)CCC2(C[C@H]1C[C@H]3OC(C)=O)OOC1(CCC(CC)CC1)OO2 (single isomer, unassigned) [28/1C38, N-(n-Propyl)-7α,12α-Diacetoxy-5β-cholan-24-amide-3-spiro-6′-(1′,2′,4′,5′-tetraoxacyclohexane)-3′-spiro-1″-((4″R or S)-ethyl)cyclohexane] | 2.28 (≈ 3.3 µM) | – | 0.36 | 0.54 | – | – | 6.25 (≈ 9.06 µM) | % Inhib [2]: 92%; Strain D6 IC50 [4]: 0.00576 µg/mL; Strain W2 IC50 ([7]; growth inhibition, chloroquine-resistant strain W2, 66 h incubation): 0.00312 µg/mL
CC(=O)O[C@H]1CC2C(C3CC[C@H](C(C)CCC(N)=O)[C@]31C)[C@H](OC(C)=O)C[C@@H]1CC3(CC[C@]21C)OOC1(CCCCC1)OO3 (stereo partly drawn) [10/1C19, 7α,12α-Diacetoxy-5β-cholan-24-amide-3-spiro-6′-(1′,2′,4′,5′-tetraoxacyclohexane)-3′-spirocyclohexane] | 4.94 (≈ 7.97 µM) | 99 | 0.79 | 0.40 | 0.00294 (≈ 0.00474 µM) | 0.00733 (≈ 0.0118 µM) | 6.25 (≈ 10.1 µM) | –
COC(=O)CNC(=O)CCC(C)[C@H]1CCC2C3C(C[C@H](OC(C)=O)[C@@]21C)[C@@]1(C)CCC2(C[C@H]1C[C@H]3OC(C)=O)OOC1(CCCCC1)OO2 (stereo partly drawn) [12/1C21, N-(Methyl ethanoate-2-yl)-7α,12α-diacetoxy-5β-cholan-24-amide-3-spiro-6′-(1′,2′,4′,5′-tetraoxacyclohexane)-3′-spirocyclohexane] | 5.42 (≈ 7.83 µM) | 99 | 0.87 | 0.49 | 0.00745 (≈ 0.0108 µM) | 0.0152 (≈ 0.022 µM) | 6.25 (≈ 9.03 µM) | Resistance Index ([6]; listed as 12): ca. 0.5
CNC(=O)CCC(C)[C@H]1CCC2C3C(C[C@H](OC(C)=O)[C@@]21C)[C@@]1(C)CCC2(C[C@H]1C[C@H]3OC(C)=O)OOC1(CCCCC1C)OO2 (stereo partly drawn) [14/1C23, N-Methyl-7α,12α-diacetoxy-5β-cholan-24-amide-3-spiro-6′-(1′,2′,4′,5′-tetraoxacyclohexane)-3′-spiro-1″-(2″-methyl)cyclohexane] | 5.63 (≈ 8.69 µM) | 99 | 1.8 | 0.64 | 0.00649 (≈ 0.01 µM) | 0.0102 (≈ 0.0158 µM) | 3.13 (≈ 4.83 µM) | –
CCNC(=O)CCC(C)[C@H]1CCC2C3C(C[C@H](OC(C)=O)[C@@]21C)[C@@]1(C)CCC2(C[C@H]1C[C@H]3OC(C)=O)OOC1(CCCCC1C)OO2 (stereo partly drawn) [15/1C24, N-Ethyl-7α,12α-diacetoxy-5β-cholan-24-amide-3-spiro-6′-(1′,2′,4′,5′-tetraoxacyclohexane)-3′-spiro-1″-(2″-methyl)cyclohexane] | 7.02 (≈ 10.6 µM) | 98 | 2.24 | 0.55 | 0.00461 (≈ 0.00697 µM) | 0.00837 (≈ 0.0126 µM) | 3.13 (≈ 4.73 µM) | –
C[C@@H]1CC[C@H]2[C@@H](C)C(=O)O[C@@H]3O[C@@]4(C)CC[C@@H]1[C@]32OO4 [Artemisinin, reference compound] | – | – | – | – | – | – | – | GI50 ([8]; Homo sapiens, IGROV-1): 79.4 µM; TGI [8]: 100 µM; GI50 ([9]; Homo sapiens): 79.4 µM; CC50 [9, 15]: 100 µM; TGI [9]: 100 µM; GI50 ([10]; Homo sapiens): 100 µM; CC50 [10, 15]: 100 µM; TGI [10]: 100 µM; GI50 ([11]; Homo sapiens): 100 µM; CC50 [11, 15]: 100 µM; TGI [11]: 100 µM; GI50 ([12]; Homo sapiens, read-out: GI50): 100 µM; CC50 [12, 15]: 100 µM; TGI [12]: 100 µM; GI50 ([13]; Homo sapiens, KM12): 100 µM; CC50 ([13]; Homo sapiens, KM12, read-out: LC50 (the source's name)): 100 µM; TGI [13]: 100 µM
